# Columns and labels:
# acetylated histone 3 = assay: Western blot for acetylated histone 3 in DAOY xenografts; type: in vivo, SCID mice
# HDAC = HDAC activity assay in DAOY cells; type: cell-based; conditions: DAOY medulloblastoma cells, 1 h treatment
# Procedure: Cultured DAOY cells, a medulloblastoma cell line, were plated in […] flasks. When the cells were 80% confluent, the media was replaced with media containing retinoic acid (RA) (5.0 μm), Trichostatin A (1 μm), SAHA (2.0 μm), LB-205 (5.0 μm), LB-205 ([…]), or PBS control. After 1 h, the cells were washed 3 times with a 0.9% normal saline solution. Cells were lysed in Tissue protein extraction reagent (T-PER) (Pierce Biotechnology; Rockford, Ill.), sonicated, and centrifuged. Nuclear cellular extracts were assayed from 0 to 50 μg per well using HDAC Assay Kit (Active Motif; Carlsbad, Calif.).
compound,measurement,setting,value
O=C(CCCCCNC(=O)c1ccccc1S)Nc1cccnc1 [LB-205],HDAC inhibition (acetylated histone 3) lasting longer than that of SAHA,"acetylated histone 3; DAOY xenografts, in vivo",at least 4 hours
same,effectiveness by Western blotting for Ac-H3,acetylated histone 3; FIG. 4D,longer effectiveness
same,HDAC inhibition,HDAC,dose-dependent HDAC inhibition

# Reference: patent US20140235649A1, “USE OF PHOSPHATASE INHIBITORS OR HISTONE DEACETYLASE INHIBITORS TO TREAT DISEASES CHARACTERIZED BY LOSS OF PROTEIN FUNCTION” (LIXTE BIOTECHNOLOGY, INC., priority 2011, published 2014)
